These results are taken from US12507720B2, “Use of anthocyanin-anionic polysaccharide complex for preventing or treating influenza virus A infection” (JBKLAB CO., LTD., priority 2019, dated 2025).

The format of this data set is physicochemical. The note with it: pH 3. The protocol: The amount of anthocyanin was confirmed using a spectrophotometer to confirm the stability of the complex prepared in Example 1 over time. 40 ml of the anthocyanin-alginic acid complex was centrifuged at 13000 rpm for 30 minutes, and the precipitate was dispersed in PBS (pH 3 or pH 7.4). In addition, anthocyanin was prepared by dissolving thereof in PBS (pH 3 or pH 7.4). The absorbance of the complex and anthocyanin dispersed in PBS (pH 3 or pH 7.4) was measured with a spectrophotometer at each wavelength band of 513 nm or 520 nm, respectively, and the change in the absorbance value of anthocyanin was observed.

With anthocyanin, the “stability (in words)” value is recorded as “stable”.
